Measured values from PubChem BioAssay AID2060343 (Molecular Pharmacology Branch, DTP, NCI, 2025).

Test system: 138582-337-R-J1-PDC spheroids with HUVEC/MSC, viability
Experiment: Anticancer human tumor 138582-337-R-J1-PDC patient-derived Merkel cell tumor cell line growth inhibition [IpAb]
Conditions: for IC50: curve of first compound; for viability, T/C: stronger effect = lower value
Outline: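 Spheroids of 60% malignant cells, 25% HUVEC and 15% MSC were exposed to targeted agents combined with ipatasertib or abemaciclib. Doses started at or near clinical Cmax (10 microM when unknown) and fell in half-log steps.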

[1] = second compound 0.01 µM, first compound 0.0316 µM
[2] = second compound 0.01 µM, first compound 0.1 µM
[3] = second compound 0.01 µM, first compound 0.316 µM
[4] = second compound 0.01 µM, first compound 1 µM
[5] = second compound 0.01 µM, first compound 3.16 µM
[6] = second compound 0.01 µM, first compound 10 µM
[7] = second compound 0.0316 µM, first compound 0.0316 µM
[8] = second compound 0.0316 µM, first compound 0.1 µM
[9] = second compound 0.0316 µM, first compound 0.316 µM
[10] = second compound 0.0316 µM, first compound 1 µM
[11] = second compound 0.0316 µM, first compound 3.16 µM
[12] = second compound 0.0316 µM, first compound 10 µM
[13] = second compound 0.1 µM, first compound 0.0316 µM
[14] = second compound 0.1 µM, first compound 0.1 µM
[15] = second compound 0.1 µM, first compound 0.316 µM
[16] = second compound 0.1 µM, first compound 1 µM
[17] = second compound 0.1 µM, first compound 3.16 µM
[18] = second compound 0.1 µM, first compound 10 µM
[19] = second compound 0.316 µM, first compound 0.0316 µM
[20] = second compound 0.316 µM, first compound 0.1 µM
[21] = second compound 0.316 µM, first compound 0.316 µM
[22] = second compound 0.316 µM, first compound 1 µM
[23] = second compound 0.316 µM, first compound 3.16 µM
[24] = second compound 0.316 µM, first compound 10 µM
[25] = second compound 1 µM, first compound 0.0316 µM
[26] = second compound 1 µM, first compound 0.1 µM
[27] = second compound 1 µM, first compound 0.316 µM
[28] = second compound 1 µM, first compound 1 µM
[29] = second compound 1 µM, first compound 3.16 µM
[30] = second compound 1 µM, first compound 10 µM
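Also: spheroids exposed to compounds for seven days.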
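For viability, T/C in this document: 100% = DMSO vehicle control viability.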

With C=CC(=O)N1CCN(c2nc(=O)n(-c3c(C)ccnc3C(C)C)c3nc(-c4c(O)cccc4F)c(F)cc23)C(C)C1 (stereo not given) + CCN1CCN(Cc2ccc(Nc3ncc(F)c(-c4cc(F)c5nc(C)n(C(C)C)c5c4)n3)nc2)CC1 the IC50 (second compound 0.01 µM) was greater than 10 µM, the IC50 (second compound 0.0316 µM) was greater than 10 µM and the IC50 (second compound 0.1 µM) was greater than 10 µM. It also gave an IC50 (second compound 0.316 µM) greater than 10 µM, an IC50 (second compound 1 µM) greater than 10 µM and a viability, T/C [1] of 107%. It also gave a viability, T/C [2] of 107%, a viability, T/C [3] of 121% and a viability, T/C [4] of 121%. It also gave a viability, T/C [5] of 143%, a viability, T/C [6] of 176% and a viability, T/C [7] of 98.7%. It also gave a viability, T/C [8] of 95.7%, a viability, T/C [9] of 90.7% and a viability, T/C [10] of 116%. It also gave a viability, T/C [11] of 125%, a viability, T/C [12] of 186% and a viability, T/C [13] of 83.7%. The viability, T/C [14] was 90.6%, the viability, T/C [15] was 104% and the viability, T/C [16] was 119%. It also gave a viability, T/C [17] of 139%, a viability, T/C [18] of 218% and a viability, T/C [19] of 94.8%. For the same compound, the viability, T/C [20] was 94.3%, the viability, T/C [21] was 92.8% and the viability, T/C [22] was 105%. It also gave a viability, T/C [23] of 144%, a viability, T/C [24] of 229% and a viability, T/C [25] of 104%. It also gave a viability, T/C [26] of 96.8%, a viability, T/C [27] of 111% and a viability, T/C [28] of 118%. The viability, T/C [29] was 135% and the viability, T/C [30] was 282%.

Cn1ncc(Cl)c1-c1cc(C(=O)NC(CN)Cc2cccc(F)c2)sc1Cl (stereo not given) + CCN1CCN(Cc2ccc(Nc3ncc(F)c(-c4cc(F)c5nc(C)n(C(C)C)c5c4)n3)nc2)CC1 gave an IC50 (second compound 0.01 µM) of 1.5 µM, an IC50 (second compound 0.0316 µM) of 1.27 µM and an IC50 (second compound 0.1 µM) of 1.2 µM. For the same compound, the IC50 (second compound 0.316 µM) was 1.19 µM, the IC50 (second compound 1 µM) was 0.792 µM and the viability, T/C [1] was 88.8%. It also gave a viability, T/C [2] of 73.4%, a viability, T/C [3] of 61.9% and a viability, T/C [4] of 50.3%. The viability, T/C [5] was 50.6%, the viability, T/C [6] was 0.19% and the viability, T/C [7] was 83.8%. The viability, T/C [8] was 70.8%, the viability, T/C [9] was 58.5% and the viability, T/C [10] was 50.2%. It also gave a viability, T/C [11] of 45.4%, a viability, T/C [12] of 0.24% and a viability, T/C [13] of 84.4%. The viability, T/C [14] was 84.6%, the viability, T/C [15] was 61.1% and the viability, T/C [16] was 48.9%. For the same compound, the viability, T/C [17] was 40.7%, the viability, T/C [18] was 0.17% and the viability, T/C [19] was 92.8%. It also gave a viability, T/C [20] of 81.8%, a viability, T/C [21] of 68% and a viability, T/C [22] of 52.1%. It also gave a viability, T/C [23] of 35.3%, a viability, T/C [24] of 0.21% and a viability, T/C [25] of 94.2%. The viability, T/C [26] was 95.3%, the viability, T/C [27] was 70.3% and the viability, T/C [28] was 39.9%. It also gave a viability, T/C [29] of 25.1% and a viability, T/C [30] of 0.27%.

Cn1ncnc1[C@H]1c2n[nH]c(=O)c3cc(F)cc(c23)N[C@@H]1c1ccc(F)cc1 + CCN1CCN(Cc2ccc(Nc3ncc(F)c(-c4cc(F)c5nc(C)n(C(C)C)c5c4)n3)nc2)CC1 gave an IC50 (second compound 0.01 µM) greater than 0.1 µM, an IC50 (second compound 0.0316 µM) greater than 0.1 µM and an IC50 (second compound 0.1 µM) greater than 0.1 µM. It also gave an IC50 (second compound 0.316 µM) greater than 0.1 µM, an IC50 (second compound 1 µM) greater than 0.1 µM and a viability, T/C (second compound 0.01 µM, first compound 0.000316 µM) of 102%. For the same compound, the viability, T/C (second compound 0.01 µM, first compound 0.001 µM) was 93.4%, the viability, T/C (second compound 0.01 µM, first compound 0.00316 µM) was 91.8% and the viability, T/C (second compound 0.01 µM, first compound 0.01 µM) was 80.7%. For the same compound, the viability, T/C [1] was 78.5%, the viability, T/C [2] was 78.9% and the viability, T/C (second compound 0.0316 µM, first compound 0.000316 µM) was 96.3%. The viability, T/C (second compound 0.0316 µM, first compound 0.001 µM) was 102%, the viability, T/C (second compound 0.0316 µM, first compound 0.00316 µM) was 89.5% and the viability, T/C (second compound 0.0316 µM, first compound 0.01 µM) was 76.5%. It also gave a viability, T/C [7] of 69.8%, a viability, T/C [8] of 66.2% and a viability, T/C (second compound 0.1 µM, first compound 0.000316 µM) of 89.7%. For the same compound, the viability, T/C (second compound 0.1 µM, first compound 0.001 µM) was 89.4%, the viability, T/C (second compound 0.1 µM, first compound 0.00316 µM) was 76.7% and the viability, T/C (second compound 0.1 µM, first compound 0.01 µM) was 78.4%. The viability, T/C [13] was 90.8%, the viability, T/C [14] was 86.4% and the viability, T/C (second compound 0.316 µM, first compound 0.000316 µM) was 85%. It also gave a viability, T/C (second compound 0.316 µM, first compound 0.001 µM) of 95.8%, a viability, T/C (second compound 0.316 µM, first compound 0.00316 µM) of 87.2% and a viability, T/C (second compound 0.316 µM, first compound 0.01 µM) of 80.3%. It also gave a viability, T/C [19] of 78.3%, a viability, T/C [20] of 72.4% and a viability, T/C (second compound 1 µM, first compound 0.000316 µM) of 99%. It also gave a viability, T/C (second compound 1 µM, first compound 0.001 µM) of 95.7%, a viability, T/C (second compound 1 µM, first compound 0.00316 µM) of 87.3% and a viability, T/C (second compound 1 µM, first compound 0.01 µM) of 79.5%. The viability, T/C [25] was 90.9% and the viability, T/C [26] was 91.2%.
